Numbered stars: 1 amine (or outer) side, 2 acyl side, 3 side chain; on linkers, the order of the positions; unused ones are H or OH. Bridge positions count the residues as written; N and C are the ends. Square brackets hold non-standard residues; d marks the D form. Side chains are listed from the residue outwards. Peptide text beside a SMILES is read from it. * marks the point of attachment. C18 diacid = O=C(O)CCCCCCCCCCCCCCCCC(=O)*; γGlu = O=C(O)[C@H](CCC(=O)[*:2])N[*:1]; Dab = NCC[C@H](N)C(=O)O; Aib = CC(C)(N)C(=O)O
Columns and labels:
[1] = target: T1, human amylin receptor (calcitonin receptor co-expressed with receptor activity modifying protein, RAMP3) (hAMYR3) (Homo sapiens, UniProt O60896+P30988); test: cAMP production in 1321N1 cells with stable recombinant expression of human amylin receptor (hAMYR3); type: cell-based; details: for Ratio (selectivity hAMYR vs hCTR, ratio of EC50 values at the two receptors): EC50 hCTR / EC50 hAMYR3; for EC50: cAMP, 1321N1 cells, assay buffer with 0.1% BSA, read-out: EC50 (pM) hAMYR3
T1 construct: expressed in transfected cells
T1 sequence (P30988 25-474): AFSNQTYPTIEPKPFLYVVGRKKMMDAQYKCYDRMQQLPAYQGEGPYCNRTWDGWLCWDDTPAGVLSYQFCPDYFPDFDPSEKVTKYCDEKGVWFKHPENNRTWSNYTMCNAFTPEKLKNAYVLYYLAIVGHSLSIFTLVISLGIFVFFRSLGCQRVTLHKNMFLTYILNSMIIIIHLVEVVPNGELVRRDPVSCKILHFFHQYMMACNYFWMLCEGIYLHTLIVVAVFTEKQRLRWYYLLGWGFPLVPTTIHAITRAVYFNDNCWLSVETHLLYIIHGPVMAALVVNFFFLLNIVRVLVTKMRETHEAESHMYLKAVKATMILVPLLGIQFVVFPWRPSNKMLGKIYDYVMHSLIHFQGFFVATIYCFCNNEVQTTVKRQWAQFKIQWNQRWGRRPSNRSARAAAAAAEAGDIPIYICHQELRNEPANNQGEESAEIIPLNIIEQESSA
T1 sequence (O60896 24-148 partner): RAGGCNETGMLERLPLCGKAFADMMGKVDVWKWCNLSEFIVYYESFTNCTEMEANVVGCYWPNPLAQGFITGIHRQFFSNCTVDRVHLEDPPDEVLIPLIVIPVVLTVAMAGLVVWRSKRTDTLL
Outline: (§1)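 Receptor-expressing cells (human receptors in 1321N1, rat receptors in HEK) incubated 30 min at room temperature with peptide in HBSS/HEPES pH 7.4, 0.1% BSA, 0.5 mM IBMX. cAMP read by HTRF; EC50 from 4-parameter fit as % of maximal amylin or calcitonin response.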

[2] = target: T2, human calcitonin receptor (hCTR) (Homo sapiens, UniProt P30988); test: cAMP production in 1321N1 cells with stable recombinant expression of human calcitonin receptor (hCTR); type: cell-based; details: cAMP, 1321N1 cells, assay buffer with 0.1% BSA; read-out: EC50 (pM) hCTR
T2 construct: expressed in transfected cells
T2 sequence (P30988 25-474): T1 sequence (P30988 25-474)
Outline: as §1

in vivo = details: male, Sprague-Dawley, rat, 20 nmol/kg
[3] = Thioflavin T fibrillation assay; type: physicochemical; details: ThT fibrillation assay; peptide 1 mg/mL in 25 mM sodium acetate buffer pH 4.0; 6 days at 37 °C with shaking; >144 h = no increase
Text: Peptide aggregation that form fibrils is an indication of physical instability. Fibril formation in solution poses a significant risk for the stability of injectable peptide drug products. Thioflavin T (ThT) fibrillation assay is a useful tool to assess the aggregation kinetics of a peptide or protein under accelerated and stressed conditions that can be used to forecast the long-term viability of a compound in solution. ThT can selectively bind amyloid fibrils and the resultant complex emits strong fluorescence signal at 482 nm when excited at 450 nm (Anal Biochem. 1989 Mar;177(2):244-9). Monitoring of the change in fluorescence signal is an established method to study the fibril forming potential of peptides and proteins. ThT (purchased from Sigma Aldrich) stock solution is prepared by dissolving the ThT powder in Milli-Q water and filtered to obtain a 0.25 mM solution. The concentration of the solution is measured at 412 nm using an extinction coefficient of 36 mM^−1cm^−1. Test peptides were dissolved at 1 mg/mL in 25 mM sodium acetate buffer pH 4.0. 100 μL aliquot of peptide solution and 5 μL aliquot of ThT solution were placed in a clear bottom black fluorescence 96-well plate. 5 replicates of each test samples were placed in zo the same row of the plate. Buffer was placed in control wells for baseline correction. All empty wells were filled with water to prevent evaporation. The plate was sealed with aluminium seal and placed in fluorescence plate reader and incubated for 6 days at 37 ° C. with intermittent orbital shaking at 500 to 750 rpm. The fluorescence intensity was measured every 30 min using excitation at 444 nm and emission at 480 nm. The fibril forming potential of the test peptides was determined by measuring the average time taken to detect an increase in baseline corrected fluorescence intensity.

Ratio (selectivity hAMYR vs hCTR, ratio of EC50 values at the two receptors) [1]	EC50 [1] [pM]	EC50 [2] [pM]	half-life (in vivo; iv) [h]	half-life (in vivo; sc) [h]	Time taken to detect increase in fluorescence intensity [3] [h]	SMILES
9	149	1280	6	5		CC[C@H](C)[C@H](NC(=O)[C@@H]1CCCN1C(=O)CNC(=O)[C@H](Cc1ccccc1)NC(=O)[C@H](CC(N)=O)NC(=O)C(C)(C)NC(=O)[C@H](CO)NC(=O)[C@H](CO)NC(=O)[C@H](Cc1c[nH]cn1)NC(=O)[C@@H](NC(=O)[C@H](CC(C)C)NC(=O)[C@H](Cc1ccccc1)NC(=O)[C@H](CC(N)=O)NC(=O)[C@H](C)NC(=O)[C@H](CC(C)C)NC(=O)[C@H](CCCNC(=N)N)NC(=O)[C@H](CCC(N)=O)NC(=O)[C@@H](NC(=O)[C@H](C)NC(=O)[C@@H]1CSSC[C@H](NC(=O)[C@@H](N)CCCCNC(=O)CC[C@H](NC(=O)CCCCCCCCCCCCCCCCC(=O)O)C(=O)O)C(=O)N[C@@H](CC(N)=O)C(=O)N[C@@H]([C@@H](C)O)C(=O)N[C@@H](C)C(=O)N[C@@H]([C@@H](C)O)C(=O)N1)[C@@H](C)O)C(C)C)C(=O)N[C@@H](CC(C)C)C(=O)N1CCC[C@H]1C(=O)N1CCC[C@H]1C(=O)N[C@H](C(=O)N[C@@H](CC(N)=O)C(=O)N[C@H](C(=O)NCC(=O)N[C@@H](CO)C(=O)N[C@@H](CCCNC(=N)N)C(=O)N[C@H](C(=O)N[C@@H](Cc1ccc(O)cc1)C(N)=O)[C@@H](C)O)C(C)C)[C@@H](C)O [Peptide 64, K(γE-C18diacid)[CNTATC]ATQRLANFLVHSS(Aib)NFGPILPPTNVGSRTY-amide] (H-K([γGlu-C18 diacid])CNTATCATQRLANFLVHSS[Aib]NFGPILPPTNVGSRTY-NH2; disulfide 2-7; N-terminus assumed)
12	161	1880			<5	CC[C@H](C)[C@H](NC(=O)[C@@H]1CCCN1C(=O)CNC(=O)[C@H](Cc1ccccc1)NC(=O)[C@H](CC(N)=O)NC(=O)[C@H](CC(N)=O)NC(=O)[C@H](CO)NC(=O)[C@H](CO)NC(=O)[C@H](Cc1c[nH]cn1)NC(=O)[C@@H](NC(=O)[C@H](CC(C)C)NC(=O)[C@H](Cc1ccccc1)NC(=O)[C@H](CC(N)=O)NC(=O)[C@H](C)NC(=O)[C@H](CC(C)C)NC(=O)[C@H](CCCNC(=N)N)NC(=O)[C@H](CCC(N)=O)NC(=O)[C@@H](NC(=O)[C@H](C)NC(=O)[C@@H]1CSSC[C@H](NC(=O)[C@@H](N)CCCCNC(=O)CC[C@H](NC(=O)CCCCCCCCCCCCCCCCC(=O)O)C(=O)O)C(=O)N[C@@H](CC(N)=O)C(=O)N[C@@H]([C@@H](C)O)C(=O)N[C@@H](C)C(=O)N[C@@H]([C@@H](C)O)C(=O)N1)[C@@H](C)O)C(C)C)C(=O)N[C@H](CC(C)C)C(=O)N1CCC[C@H]1C(=O)N1CCC[C@H]1C(=O)N[C@H](C(=O)N[C@@H](CC(N)=O)C(=O)N[C@H](C(=O)NCC(=O)N[C@@H](CO)C(=O)N[C@@H](CC(N)=O)C(=O)N[C@H](C(=O)N[C@@H](Cc1ccc(O)cc1)C(N)=O)[C@@H](C)O)C(C)C)[C@@H](C)O [Peptide 103, K(γE-C18diacid)[CNTATC]ATQRLANFLVHSSNNFGPI(dL)PPTNVGSNTY-amide] (H-K([γGlu-C18 diacid])CNTATCATQRLANFLVHSSNNFGPI[dL]PPTNVGSNTY-NH2; disulfide 2-7; N-terminus assumed)
23	79	1820			<5	CC[C@H](C)[C@H](NC(=O)[C@@H]1CCCN1C(=O)CNC(=O)[C@H](Cc1ccccc1)NC(=O)[C@H](CC(N)=O)NC(=O)[C@H](CC(N)=O)NC(=O)[C@H](CO)NC(=O)[C@H](CO)NC(=O)[C@H](Cc1c[nH]cn1)NC(=O)[C@@H](NC(=O)[C@H](CC(C)C)NC(=O)[C@H](Cc1ccccc1)NC(=O)[C@H](CC(N)=O)NC(=O)[C@H](C)NC(=O)[C@H](CC(C)C)NC(=O)[C@H](CCCNC(=N)N)NC(=O)[C@H](CCC(N)=O)NC(=O)[C@@H](NC(=O)[C@H](C)NC(=O)[C@@H]1CSSC[C@H](NC(=O)[C@@H](N)CCCCNC(=O)CC[C@H](NC(=O)CCCCCCCCCCCCCCCCC(=O)O)C(=O)O)C(=O)N[C@@H](CC(N)=O)C(=O)N[C@@H]([C@@H](C)O)C(=O)N[C@@H](C)C(=O)N[C@@H]([C@@H](C)O)C(=O)N1)[C@@H](C)O)C(C)C)C(=O)N[C@@H](CC(C)C)C(=O)N1CCC[C@@H]1C(=O)N1CCC[C@H]1C(=O)N[C@H](C(=O)N[C@@H](CC(N)=O)C(=O)N[C@H](C(=O)NCC(=O)N[C@@H](CO)C(=O)N[C@@H](CC(N)=O)C(=O)N[C@H](C(=O)N[C@@H](Cc1ccc(O)cc1)C(N)=O)[C@@H](C)O)C(C)C)[C@@H](C)O [Peptide 104] (H-K([γGlu-C18 diacid])CNTATCATQRLANFLVHSSNNFGPIL[dP]PTNVGSNTY-NH2; disulfide 2-7; N-terminus assumed)
22.3	3750	83800			>144	CC[C@H](C)[C@H](NC(=O)[C@@H]1CCCN1C(=O)CNC(=O)[C@H](Cc1ccccc1)NC(=O)[C@H](CC(N)=O)NC(=O)[C@H](CC(N)=O)NC(=O)[C@H](CO)NC(=O)[C@H](CO)NC(=O)[C@H](Cc1c[nH]cn1)NC(=O)C(C)(C)NC(=O)[C@H](CC(C)C)NC(=O)[C@H](Cc1ccccc1)NC(=O)[C@H](CCN)NC(=O)[C@H](C)NC(=O)[C@H](CC(C)C)NC(=O)[C@H](CCCNC(=N)N)NC(=O)[C@H](CCC(N)=O)NC(=O)[C@@H](NC(=O)[C@H](C)NC(=O)[C@@H]1CSSC[C@H](NC(=O)[C@H](CCCCN)NC(=O)[C@@H](N)CCCCNC(=O)CC[C@H](NC(=O)CCCCCCCCCCCCCCCCC(=O)O)C(=O)O)C(=O)N[C@@H](CC(N)=O)C(=O)N[C@@H]([C@@H](C)O)C(=O)N[C@@H](C)C(=O)N[C@@H]([C@@H](C)O)C(=O)N1)[C@@H](C)O)C(=O)N[C@@H](CC(C)C)C(=O)N1CCC[C@H]1C(=O)N1CCC[C@H]1C(=O)N[C@H](C(=O)N[C@@H](CCC(=O)O)C(=O)N[C@H](C(=O)NCC(=O)N[C@@H](CO)C(=O)N[C@@H](CC(N)=O)C(=O)N[C@H](C(=O)N[C@@H](Cc1ccc(O)cc1)C(N)=O)[C@@H](C)O)C(C)C)[C@@H](C)O [Peptide 156] (H-K([γGlu-C18 diacid])KCNTATCATQRLA[Dab]FL[Aib]HSSNNFGPILPPTEVGSNTY-NH2; disulfide 3-8)

— patent US20240067693A1, “POLYPEPTIDES AND USES THEREOF” (MEDIMMUNE LIMITED, priority 2020, published 2024)
